Laboratory results published in ChEMBL document CHEMBL5625235, “Discovery of X10g as a selective PROTAC degrader of Hsp90α protein for treating breast cancer” (Eur J Med Chem, 2023).
The source made the active and inactive calls. The rule behind the calls is not given here.

How the values were obtained:
MDA-MB-231 = test: Antiproliferative activity against human MDA-MB-231 cells assessed as inhibition of cell proliferation incubated for 72 hrs by MTT assay; format: functional, cell-based; conditions: MDA-MB-231, 72 h
MDA-MB-468 = test: Antiproliferative activity against human MDA-MB-468 cells assessed as inhibition of cell proliferation incubated for 72 hrs by MTT assay; format: functional, cell-based; conditions: MDA-MB-468, 72 h
MCF7 [1] = test: Antiproliferative activity against human MCF7 cells assessed as inhibition of cell proliferation incubated for 72 hrs by MTT assay; format: functional, cell-based; conditions: MCF7, 72 h
MX1 = test: Antiproliferative activity against human MX1 cells assessed as inhibition of cell proliferation incubated for 72 hrs by MTT assay; format: functional, cell-based; conditions: MX1, 72 h
[2] = molecular target: Protein cereblon/Heat shock protein HSP 90-alpha (Homo sapiens, UniProt P07900+Q96SW2); test: PROTAC activity at CRBN/HSP90alpha in human MCF7 cells assessed as induction of HSP90alpha degradation at 0.5 uM incubated for 8 hrs by Western blot analysis; format: cell-based
[3] = molecular target: Protein cereblon/Heat shock protein HSP 90-beta (Homo sapiens) (UniProt P08238+Q96SW2); test: PROTAC activity at CRBN/HSP90beta in human MCF7 cells assessed as induction of HSP90beta degradation at 0.5 uM incubated for 8 hrs by Western blot analysis; format: cell-based
[4] = molecular target: Heat shock protein HSP 90-beta (Homo sapiens, UniProt P08238); test: Inhibition of HSP90beta (unknown origin) incubated for 24 hrs by fluorescence polarization assay
MCF7 [5] = test: Potency index, ratio of AT13387 IC50 to test compound IC50 for antiproliferative activity against human MCF7 cells assessed as inhibition of cell proliferation incubated for 72 hrs by MTT assay; format: functional
[6] = molecular target: T1, Heat shock protein HSP 90-alpha (Homo sapiens, UniProt P07900); test: Inhibition of 6His-tagged human HSP90alpha N-terminal domain (1 to 223 residues) expressed in Escherichia coli BL21 DE3 cells incubated for 24 hrs by fluorescence polarization assay
[7] = molecular target: T1, Heat shock protein HSP 90-alpha; test: Induction of HSP90alpha degradation in human MCF7 cells at 0.5 uM incubated for 8 hrs by Western blot analysis; format: cell-based
[8] = molecular target: T1, Heat shock protein HSP 90-alpha; test: Induction of HSP90alpha degradation in human MCF7 cells at 0.5 uM incubated for 8 hrs in presence of pomalidomide by Western blot analysis; format: cell-based
4T1 [9] = test: Antitumor activity against mouse 4T1 cells implanted in BALB/c mouse assessed as tumor growth inhibition at 50 mg/kg, ip administered twice a week and measured after 20 days relative to control; format: functional; conditions: 4T1, 480 h, time 20 day, read-out: TGI
4T1 [10] = test: Antitumor activity against mouse 4T1 cells implanted in BALB/c mouse assessed as reduction in tumor weight at 50 mg/kg, ip administered twice a week and measured after 20 days; format: functional, organism-based; conditions: time 20.0 day
[11] = Toxicity in BALB/c mouse implanted with mouse 4T1 cells assessed as effect on body weight at 50 mg/kg, ip administered twice a week and measured after 20 days; format: organism-based; conditions: in vivo, 480 h, time 20 day

Heat shock protein HSP 90-beta, sequence (P08238 whole entry): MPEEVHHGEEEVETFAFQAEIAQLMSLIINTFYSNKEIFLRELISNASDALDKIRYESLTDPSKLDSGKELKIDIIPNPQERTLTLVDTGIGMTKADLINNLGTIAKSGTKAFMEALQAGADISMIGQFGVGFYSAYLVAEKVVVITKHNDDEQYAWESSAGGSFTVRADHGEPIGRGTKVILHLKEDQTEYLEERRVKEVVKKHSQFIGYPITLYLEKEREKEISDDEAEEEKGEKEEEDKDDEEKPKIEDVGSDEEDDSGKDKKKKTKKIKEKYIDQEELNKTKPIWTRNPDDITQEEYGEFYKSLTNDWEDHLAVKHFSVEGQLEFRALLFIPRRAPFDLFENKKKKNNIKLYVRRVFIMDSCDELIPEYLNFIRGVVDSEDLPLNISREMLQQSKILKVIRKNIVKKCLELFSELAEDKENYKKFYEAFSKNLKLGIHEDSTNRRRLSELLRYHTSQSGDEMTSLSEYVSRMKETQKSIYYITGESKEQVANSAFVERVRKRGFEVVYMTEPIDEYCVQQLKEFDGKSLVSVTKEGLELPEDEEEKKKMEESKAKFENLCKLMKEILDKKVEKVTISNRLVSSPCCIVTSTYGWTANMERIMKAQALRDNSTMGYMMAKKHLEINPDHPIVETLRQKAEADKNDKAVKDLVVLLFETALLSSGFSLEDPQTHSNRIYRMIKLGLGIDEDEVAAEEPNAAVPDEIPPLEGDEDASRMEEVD

IC50 (MDA-MB-231)	IC50 (MDA-MB-468)	IC50 (MCF7 [1])	Activity [2]	Activity [3]	IC50 [4]	IC50 [6]	Activity [7]	Activity [8]	Structure (SMILES)	IC50 (MX1)	Ratio IC50 (MCF7 [5])	inhibition in vivo at 50 mg/kg (4T1 [9])	Activity (4T1 [10])	Activity [11]
4.79 µM	0.75 µM	4.47 µM	inactive	inactive					CC(C)c1cc(C(=O)N2Cc3ccc(CN4CCN(C(=O)CCCCCNc5cccc6c5CN(C5CCC(=O)NC5=O)C6=O)CC4)cc3C2)c(O)cc1O (stereo not given)	1.93 µM				
62.8 µM	30.6 µM	6.03 µM	inactive	inactive					CC(C)c1cc(C(=O)N2Cc3ccc(CN4CCN(CCCCCCCC(=O)Nc5cccc6c5C(=O)N(C5CCC(=O)NC5=O)C6=O)CC4)cc3C2)c(O)cc1O (stereo not given)	4.94 µM				
					0.004 µM				CC(C)c1cc(C(=O)N2Cc3ccccc3C2)c(O)cc1O					
6.8 µM	6.19 µM	0.03 µM	inactive	inactive					CC(C)c1cc(C(=O)N2Cc3ccc(CN4CCN(CCC(=O)Nc5cccc6c5C(=O)N(C5CCC(=O)NC5=O)C6=O)CC4)cc3C2)c(O)cc1O (stereo not given)	0.09 µM	~35			
94.2 µM	87.1 µM	48.2 µM							CC(C)c1cc(C(=O)N2Cc3ccc(CN4CCN(CCCCC(=O)Nc5cccc6c5C(=O)N(C5CCC(=O)NC5=O)C6=O)CC4)cc3C2)ccc1O (stereo not given)	76.6 µM				
5.11 µM	27.2 µM	0.58 µM	inactive	inactive					CC(C)c1cc(C(=O)N2Cc3ccc(CN4CCN(CCCCCC(=O)Nc5cccc6c5C(=O)N(C5CCC(=O)NC5=O)C6=O)CC4)cc3C2)c(O)cc1O (stereo not given)	0.03 µM				
18.8 µM	5.27 µM	4.28 µM	inactive	inactive					CC(C)c1cc(C(=O)N2Cc3ccc(CN4CCN(CCCCC(=O)Nc5cccc6c5C(=O)N(C5CCC(=O)NC5=O)C6=O)CC4)cc3C2)c(O)cc1O (stereo not given)	6.78 µM				
> 100 µM	35.9 µM	18.5 µM							CC(C)c1cc(C(=O)N2Cc3ccc(CN4CCN(CCCCCCCC(=O)Nc5cccc6c5C(=O)N(C5CCC(=O)NC5=O)C6=O)CC4)cc3C2)ccc1O (stereo not given)	63 µM				
					4.47 µM	0.41 µM			CC(C)c1cc(C(=O)N2Cc3ccccc3C2)ccc1O					
2.6 µM	3.31 µM	0.84 µM					inactive	inactive	CC(C)c1cc(C(=O)N2Cc3ccc(CN4CCN(C)CC4)cc3C2)c(O)cc1O [ONALESPIB]	0.5 µM		43.2%	Active	Toxic
> 100 µM	> 100 µM	> 100 µM							Nc1cccc2c1CN(C1CCC(=O)NC1=O)C2=O (stereo not given) [LENALIDOMIDE]	> 100 µM				
